Measurements from ChEMBL document CHEMBL1155823, “The effect of 5-alkyl modification on the biological activity of pyrrolo[2,3-d]pyrimidine containing classical and nonclassical antifolates as inhibitors of dihydrofolate reductase and as antitumor and/or antiopportunistic infection agents” (J Med Chem, 2008).

Legend:
Dihydrofolate reductase [1] = target: T1, Dihydrofolate reductase (Pneumocystis carinii, UniProt P16184)
T1 sequence (P16184 whole entry): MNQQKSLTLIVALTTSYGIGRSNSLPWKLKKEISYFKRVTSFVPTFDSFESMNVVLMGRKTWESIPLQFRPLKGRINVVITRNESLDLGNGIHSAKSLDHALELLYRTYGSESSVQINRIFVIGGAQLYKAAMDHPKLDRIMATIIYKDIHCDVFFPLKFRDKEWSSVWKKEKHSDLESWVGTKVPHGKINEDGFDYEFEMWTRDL
Description: (§1) Inhibition of Pneumocystis carinii DHFR using dihydrofolic acid substrate and NADPH cofactor

Dihydrofolate reductase [2] = target: T2, Dihydrofolate reductase (Homo sapiens, UniProt P00374)
T2 sequence (P00374 whole entry): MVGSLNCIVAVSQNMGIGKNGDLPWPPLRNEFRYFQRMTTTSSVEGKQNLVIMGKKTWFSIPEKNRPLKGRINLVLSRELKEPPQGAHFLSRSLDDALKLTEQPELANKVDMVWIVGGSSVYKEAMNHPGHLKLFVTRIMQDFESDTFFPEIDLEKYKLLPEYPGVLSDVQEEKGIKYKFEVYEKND

Thymidylate synthase [3] = target: T3, Thymidylate synthase (Homo sapiens, UniProt P04818); test: Inhibition of human thymidylate synthase at >[…] uM
Target sequence in this assay (P04818 2-313 limits assumed): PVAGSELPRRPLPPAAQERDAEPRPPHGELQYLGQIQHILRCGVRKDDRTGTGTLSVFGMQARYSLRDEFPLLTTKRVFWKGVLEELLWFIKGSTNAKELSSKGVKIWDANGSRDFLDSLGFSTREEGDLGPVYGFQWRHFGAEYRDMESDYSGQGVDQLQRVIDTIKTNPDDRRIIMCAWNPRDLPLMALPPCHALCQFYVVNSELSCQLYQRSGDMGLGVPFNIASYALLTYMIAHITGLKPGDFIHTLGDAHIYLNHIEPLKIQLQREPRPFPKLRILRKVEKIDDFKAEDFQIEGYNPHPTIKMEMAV

[4] = target: T4, Bifunctional dihydrofolate reductase-thymidylate synthase (Toxoplasma gondii, UniProt Q07422); test: Inhibition of Toxoplasma gondii dihydrofolate reductase
T4 sequence (Q07422 whole entry): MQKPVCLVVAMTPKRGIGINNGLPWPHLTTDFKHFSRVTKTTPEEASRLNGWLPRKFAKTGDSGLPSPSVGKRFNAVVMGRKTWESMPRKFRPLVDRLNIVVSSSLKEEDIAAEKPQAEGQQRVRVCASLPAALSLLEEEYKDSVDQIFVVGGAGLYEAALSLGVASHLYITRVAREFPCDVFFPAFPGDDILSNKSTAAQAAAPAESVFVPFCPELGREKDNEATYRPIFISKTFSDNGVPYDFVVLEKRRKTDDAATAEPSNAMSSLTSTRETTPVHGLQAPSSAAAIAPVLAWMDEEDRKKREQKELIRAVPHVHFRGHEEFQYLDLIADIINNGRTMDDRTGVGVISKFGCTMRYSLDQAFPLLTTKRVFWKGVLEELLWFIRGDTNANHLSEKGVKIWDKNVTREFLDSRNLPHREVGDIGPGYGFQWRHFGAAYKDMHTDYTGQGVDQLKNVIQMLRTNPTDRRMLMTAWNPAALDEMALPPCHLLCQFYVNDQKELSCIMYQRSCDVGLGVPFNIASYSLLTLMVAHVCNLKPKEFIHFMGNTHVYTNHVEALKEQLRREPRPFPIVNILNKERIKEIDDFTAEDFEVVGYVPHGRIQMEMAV

[5] = target: T5, Dihydrofolate reductase (Homo sapiens) (UniProt P00374); test: Inhibition of human dihydrofolate reductase at >[…] uM
T5 sequence (whole entry): T2 sequence (P00374 whole entry)

[6] = target: Dihydrofolate reductase (Pneumocystis carinii) (UniProt P16184); test: Inhibition of Pneumocystis carinii DHFR at […] using dihydrofolic acid substrate and NADPH cofactor
Dihydrofolate reductase [7] = target: T6, Dihydrofolate reductase (Rattus norvegicus, UniProt Q920D2)
T6 sequence (Q920D2 whole entry): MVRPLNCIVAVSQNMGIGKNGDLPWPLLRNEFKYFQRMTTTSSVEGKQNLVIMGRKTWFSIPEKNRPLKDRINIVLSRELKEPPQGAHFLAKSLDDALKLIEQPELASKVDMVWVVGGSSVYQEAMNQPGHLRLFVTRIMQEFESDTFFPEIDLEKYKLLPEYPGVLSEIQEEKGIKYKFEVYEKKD

[8] = target: T4, Bifunctional dihydrofolate reductase-thymidylate synthase; test: Inhibition of Toxoplasma gondii thymidylate synthase
Thymidylate synthase [9] = target: Thymidylate synthase (Escherichia coli, UniProt C3SWJ7); test: Inhibition of Escherichia coli thymidylate synthase
Thymidylate synthase [10] = target: T3, Thymidylate synthase; test: Inhibition of human thymidylate synthase
Target sequence in this assay (P04818 whole entry): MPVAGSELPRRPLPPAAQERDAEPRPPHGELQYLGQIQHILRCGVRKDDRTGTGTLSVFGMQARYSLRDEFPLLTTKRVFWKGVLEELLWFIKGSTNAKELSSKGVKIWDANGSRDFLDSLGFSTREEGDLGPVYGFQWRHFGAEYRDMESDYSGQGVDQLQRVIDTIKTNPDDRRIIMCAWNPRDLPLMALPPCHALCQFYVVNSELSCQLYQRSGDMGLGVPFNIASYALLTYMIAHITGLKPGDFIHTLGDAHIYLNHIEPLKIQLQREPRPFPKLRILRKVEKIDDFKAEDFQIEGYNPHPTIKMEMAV

[11] = target: Thymidylate synthase (Escherichia coli) (UniProt C3SWJ7); test: Inhibition of Escherichia coli thymidylate synthase at >[…] uM
Dihydrofolate reductase [12] = target: T1, Dihydrofolate reductase; remark: listed apart in the source
Description: as §1

[13] = target: T7, Bifunctional dihydrofolate reductase-thymidylate synthase (Toxoplasma gondii) (UniProt Q07422); test: Inhibition of Toxoplasma gondii thymidylate synthase at >[…] uM
T7 sequence (whole entry): T4 sequence (Q07422 whole entry)

Thymidylate synthase [14] = target: T3, Thymidylate synthase; test: Inhibition of human thymidylate synthase at >23 uM
Target sequence in this assay (P04818 2-313 limits assumed): as the sequence (P04818 2-313 limits assumed) above

[15] = target: T5, Dihydrofolate reductase (Homo sapiens); test: Inhibition of human dihydrofolate reductase at >28 uM
Thymidylate synthase [16] = target: T3, Thymidylate synthase; test: Inhibition of human thymidylate synthase at >14 uM
Target sequence in this assay (P04818 2-313 limits assumed): as above

[17] = target: Thymidylate synthase (Escherichia coli) (UniProt C3SWJ7); test: Inhibition of Escherichia coli thymidylate synthase at >14 uM
Dihydrofolate reductase [18] = target: T6, Dihydrofolate reductase; remark: listed apart in the source
[19] = target: T5, Dihydrofolate reductase (Homo sapiens); test: Inhibition of human dihydrofolate reductase at >30 uM
[20] = target: Dihydrofolate reductase (Pneumocystis carinii) (UniProt P16184); test: Inhibition of Pneumocystis carinii DHFR at 22 uM using dihydrofolic acid substrate and NADPH cofactor

Thymidylate synthase (Escherichia coli, UniProt C3SWJ7), sequence (C3SWJ7 whole entry): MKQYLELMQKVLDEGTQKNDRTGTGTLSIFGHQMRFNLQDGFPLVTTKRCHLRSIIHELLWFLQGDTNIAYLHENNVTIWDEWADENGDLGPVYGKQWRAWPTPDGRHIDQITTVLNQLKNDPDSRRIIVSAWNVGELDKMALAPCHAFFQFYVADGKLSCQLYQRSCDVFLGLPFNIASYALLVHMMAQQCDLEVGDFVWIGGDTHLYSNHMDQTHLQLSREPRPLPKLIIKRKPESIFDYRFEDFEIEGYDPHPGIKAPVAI
Thymidylate synthase (Escherichia coli), sequence (C3SWJ7 1-264): as the sequence (C3SWJ7 whole entry) above

| SMILES | IC50 (Dihydrofolate reductase [1]) | IC50 (Dihydrofolate reductase [2]) | inhibition (Thymidylate synthase [3]) | IC50 [4] | inhibition [5] | inhibition [6] | IC50 (Dihydrofolate reductase [7]) | IC50 [8] | IC50 (Thymidylate synthase [9]) | IC50 (Thymidylate synthase [10]) | inhibition [11] | IC50 (Dihydrofolate reductase [12]) | inhibition [13] | inhibition (Thymidylate synthase [14]) | inhibition [15] | inhibition (Thymidylate synthase [16]) | inhibition [17] | IC50 (Dihydrofolate reductase [18]) | inhibition [19] | inhibition [20] |
| --- | --- | --- | --- | --- | --- | --- | --- | --- | --- | --- | --- | --- | --- | --- | --- | --- | --- | --- | --- | --- |
| CCCc1c(Sc2ccc3ccccc3c2)[nH]c2nc(N)nc(N)c12 | 3.5 µM | > 15 µM | 0% | 0.15 µM | 30% | 16% | 3.8 µM | > 15 µM | > 12 µM | > 12 µM | – | – | – | – | – | – | – | – | – | – |
| CC(C)c1c(Sc2ccc3ccccc3c2)[nH]c2nc(N)nc(N)c12 | – | > 29 µM | 39% | 1.5 µM | – | – | 2.1 µM | > 2.4 µM | > 2.4 µM | > 24 µM | 0% | 7.1 µM | – | – | – | – | – | – | – | – |
| COc1ccc(OC)c(Sc2[nH]c3nc(N)nc(N)c3c2C(C)C)c1 | – | > 28 µM | – | 1.4 µM | – | – | 50.3 µM | > 2.3 µM | > 2.3 µM | > 23 µM | 0% | 35.6 µM | 0% | 0% | 0% | – | – | – | – | – |
| COc1ccc(Sc2[nH]c3nc(N)nc(N)c3c2C(C)C)cc1 | – | 30 µM | – | 0.6 µM | – | – | 1.9 µM | > 2.5 µM | > 2.5 µM | > 25 µM | 0% | – | – | – | – | – | – | – | – | – |
| COc1ccc(Sc2[nH]c3nc(N)nc(N)c3c2C(C)C)cc1OC | – | 27 µM | – | 2.7 µM | – | – | 4.6 µM | > 2.3 µM | > 2.3 µM | > 23 µM | 0% | 28.2 µM | 0% | 0% | – | – | – | – | – | – |
| CCCc1c(Sc2cccc3ccccc23)[nH]c2nc(N)nc(N)c12 | – | > 29 µM | 0% | 0.058 µM | – | – | 6.5 µM | > 12 µM | > 12 µM | > 12 µM | – | 8.6 µM | 16% | – | – | – | – | – | – | – |
| CC(C)c1c(Sc2ccccc2)[nH]c2nc(N)nc(N)c12 | – | 16 µM | 0% | 0.064 µM | – | – | 2 µM | > 2.7 µM | > 2.7 µM | > 27 µM | 0% | 11.2 µM | 0% | – | – | – | – | – | – | – |
| COc1ccc(OC)c(Cc2sc3nc(N)nc(N)c3c2C)c1 | – | – | – | 0.07 µM | – | – | – | – | – | – | – | – | – | – | – | – | – | – | – | – |
| CCCc1c(Sc2c(Cl)cccc2Cl)[nH]c2nc(N)nc(N)c12 | – | 2.6 µM | – | – | – | – | 5.95 µM | – | > 22 µM | > 22 µM | 0% | 5.35 µM | – | – | – | – | – | – | – | – |
| CCCc1c(Sc2cc(OC)ccc2OC)[nH]c2nc(N)nc(N)c12 | – | > 28 µM | 0% | – | – | – | 8.9 µM | – | > 12 µM | – | – | 10.4 µM | 0% | – | 13% | – | – | – | – | – |
| CCCc1c(Sc2ccc(OC)c(OC)c2)[nH]c2nc(N)nc(N)c12 | – | > 26 µM | 0% | 1 µM | 35% | – | 3.45 µM | > 11 µM | > 11 µM | > 11 µM | 0% | 8.45 µM | – | – | – | – | – | – | – | – |
| CCCc1c(Sc2ccccc2)[nH]c2nc(N)nc(N)c12 | – | 33 µM | – | 0.12 µM | – | – | – | > 1.4 µM | > 14 µM | > 14 µM | – | 4.21 µM | – | – | – | 0% | 0% | – | – | – |
| CCc1c(Sc2ccccc2)[nH]c2nc(N)nc(N)c12 | 21.8 µM | – | – | – | – | – | – | – | – | – | – | – | – | – | – | – | – | 5.6 µM | – | – |
| CC(C)c1c(Sc2ccc(Cl)c(Cl)c2)[nH]c2nc(N)nc(N)c12 | – | > 27 µM | – | 1.4 µM | 0% | – | 13.5 µM | > 2.3 µM | > 2.3 µM | > 23 µM | 0% | 10.9 µM | 0% | 14% | – | – | – | – | – | – |
| CC(C)c1c(Sc2cccc3ccccc23)[nH]c2nc(N)nc(N)c12 | – | > 29 µM | 0% | 0.12 µM | – | – | 0.91 µM | > 12 µM | > 12 µM | > 12 µM | – | 0.68 µM | 0% | – | – | – | – | – | – | – |
| Cc1cccc(C)c1Sc1[nH]c2nc(N)nc(N)c2c1C(C)C | – | > 30 µM | – | 0.3 µM | – | – | 14.8 µM | > 13 µM | > 13 µM | > 13 µM | 0% | – | 0% | – | – | – | – | – | 10% | – |
| CCCc1c(Sc2c(C)cccc2C)[nH]c2nc(N)nc(N)c12 | – | 3 µM | – | – | – | – | 2.43 µM | – | > 24 µM | > 24 µM | – | 5.32 µM | – | – | – | – | – | – | – | – |
| CCc1c(Sc2cc(OC)ccc2OC)[nH]c2nc(N)nc(N)c12 | 6.04 µM | – | – | – | – | – | – | – | – | – | – | – | – | – | – | – | – | 4.05 µM | – | – |
| CCCc1c(Sc2ccc(OC)cc2)[nH]c2nc(N)nc(N)c12 | – | > 30 µM | – | 0.23 µM | – | – | 1.25 µM | > 13 µM | > 13 µM | > 13 µM | 0% | 4.21 µM | 12% | – | – | – | – | – | 15% | – |
| CC(C)c1c(Sc2c(Cl)cccc2Cl)[nH]c2nc(N)nc(N)c12 | 22 µM | > 26 µM | – | 0.52 µM | 37% | – | 2.4 µM | > 2.2 µM | > 2.2 µM | > 22 µM | – | – | – | – | – | – | – | – | – | 14% |
